We go through 19 compounds from patent US8623387B2, “External preparation composition comprising fatty acid-based ionic liquid as active ingredient” (Medrx Co., Ltd., priority 2007, dated 2014).

Where a name gives a salt, the structure may show the parent alone. Read-outs that look alike come from different tables or passages of the source.

Series [1] in a line: Transdermal absorbability evaluation test using Franz-cells (rat skin permeation). The settings on record: for Rat skin permeability after 6 hours: tramadol salt liquid preparation free from ionic liquid, percentage of amount added onto the rat skin.
For series [2] the following is noted: cited from earlier work.
Series [3] is described as follows: pKa of acidic and basic substances present in the compositions. It is filed as physicochemical. Particulars: assumed to be equal to that of an analogue (footnote *1).
[4] abbreviates: carboxylic acids and organic amine compounds used for the ionic liquids.

On to `CCCCC(CC)C(=O)O.COc1cccc(C2(O)CCCCC2CN(C)C)c1` (centres unmarked) [2-ethylhexanoate, 2-ethylhexanoate of Tramadol], for which the “Rat skin permeability after 6 hours” value in series [1] is 12.1%. Usually pKa stands for the pH at which an ionisable group is half protonated. As for `NC1CCCCC1` [Cyclohexylamine], the pKa in series [2] was 10.63. Take `CCc1ccc(C(=O)C(C)CN2CCCCC2)cc1` (centres unmarked) [Eperisone, reference compound]: the pKa in series [2] is recorded as 8.91. With `CCc1cccc2c3c([nH]c12)C(CC)(CC(=O)O)OCC3` (centres unmarked) [Etodolac, reference compound], the pKa in series [2] was 4.5. Take `CC(C(=O)O)c1ccc(-c2ccccc2)c(F)c1` (centres unmarked) [Flurbiprofen, reference compound]: in series [2], the pKa is on record as 3.78. `COc1cccc(C2(O)CCCCC2CN(C)C)c1` (centres unmarked) [Hydrochloride, tramadol hydrochloride, reference compound]: in series [1], the “Rat skin permeability after 6 hours” value amounted to 4.5%. For the compound `COc1ccc2c(c1)c(CC(=O)O)c(C)n2C(=O)c1ccc(Cl)cc1` [Indomethacin, reference compound], in series [1] (indomethacin, cumulative amount permeated 6 hours after start of test, rat skin, Franz-cells), the Transdermal absorbability result is reported as “approximately 3 μg/cm^2”. Consider `CC(C)CCCCCCCCCCCCCCC(=O)O` [Isostearic acid], for which the pKa result in series [2] (setting [4]) is “(pKa ≈ 4.9)”; in series [2] it was “approximately 4.9”.

For `CCCCCCCCCCCC(=O)O` [Lauric acid], the pKa entry in series [2] (setting [4]) is “(pKa ≈ 4.9)”. Turning to `CC(=O)CCC(=O)O` [Levulinic acid], the pKa in series [2] is 4.5.

As for `CC(C(=O)O)c1ccc(CC2CCCC2=O)cc1` (centres unmarked) [Loxoprofen, reference compound], the pKa in series [2] is recorded as 4.20.

Regarding `CCCCCCCCCCCCCC(=O)O` [Myristic acid], the pKa result in series [2] is on record as “ca.4.9”. For `OCCN1CCCC1` [N-hydroxyethyl-pyrrolidine, N-hydroxyethylpyrrolidine], the pKa in series [2] is on record as 10.32.

Consider `Cc1ccc(C(=O)C(C)CN2CCCCC2)cc1` (centres unmarked) [Tolperisone, reference compound], for which, in series [3], the pKa was about 8.9. On to `CCCCCCN` [n-Hexylamine], for which the pKa in series [2] was 10.85. In series [3], `CCCCCCCCN` [n-Octylamine] returned a pKa of 10.7. For the compound `CCCCCCCC/C=C\CCCCCCCC(=O)O` [oleic acid], in series [2], the pKa result was “approximately 4.9”. In the case of Butyrate, the “Rat skin permeability after 6 hours” value in series [1] is given as 23.8%. As for Lactate, in series [1], the “Rat skin permeability after 6 hours” value came out at 0.2%.
